Experimental data reported in patent US12077503B2, “Substituted cyclic amides and their use as herbicides” (FMC CORPORATION, priority 2015, dated 2024).

Columns and labels:
Format in all cases: in vivo
[1] = tested on: giant foxtail (Setaria faberii); test: Test A preemergence; conditions: Setaria faberi, pre-emergence, 240 h, 0 to 100 scale where 0 is no effect and 100 is complete control, read-out: Foxtail, Giant plant response rating
How it was run: (§1)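 In a loam soil and sand blend, planted seeds got a preemergence directed soil spray, and young plants at the one- to two-leaf stage, 2–10 cm high, got a postemergence application; ~10 d greenhouse hold; injury rated visually, 0 = none, 100 = complete control.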

[2] = tested on: ryegrass, Italian (Italian ryegrass, Lolium multiflorum); test: Test A preemergence; conditions: Lolium multiflorum, pre-emergence, 240 h, 0 to 100 scale where 0 is no effect and 100 is complete control, read-out: Ryegrass, Italian plant response rating
How it was run: as §1

[3] = tested on: Kochia (Kochia scoparia); test: Test A preemergence; conditions: Bassia scoparia, pre-emergence, 240 h, 0 to 100 scale where 0 is no effect and 100 is complete control, read-out: Kochia plant response rating
How it was run: as §1

[4] = tested on: barnyardgrass (Echinochloa crus-galli); test: Test A preemergence; conditions: Echinochloa crus-galli, pre-emergence, 240 h, 0 to 100 scale where 0 is no effect and 100 is complete control, read-out: Barnyardgrass plant response rating
How it was run: as §1

[5] = tested on: ragweed (common ragweed, Ambrosia elatior); test: Test A preemergence; conditions: Ambrosia artemisiifolia, pre-emergence, 240 h, 0 to 100 scale where 0 is no effect and 100 is complete control, read-out: Ragweed plant response rating
How it was run: as §1

[6] = tested on: pigweed (Amaranthus retroflexus); test: Test A preemergence; conditions: Amaranthus retroflexus, pre-emergence, 240 h, 0 to 100 scale where 0 is no effect and 100 is complete control, read-out: Pigweed plant response rating
[7] = tested on: sedge, umbrella (small-flower umbrella sedge, Cyperus difformis); test: Test B flooded paddy test; conditions: Cyperus difformis, 250 g ai/ha, Flood; 0 to 100 scale where 0 is no effect and 100 is complete control; read-out: Sedge, Umbrella plant response rating
How it was run: (§2)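 Plants at 2-leaf stage flooded to 3 cm above soil, with compounds applied directly to paddy water and that depth maintained. Plants kept in greenhouse 13–15 d. Visual rating versus controls on a 0 (no effect) to 100 (complete control) scale.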

[8] = tested on: rice (Oryra sativa); test: Test B flooded paddy test; conditions: Oryza sativa, 250 g ai/ha, Flood; 0 to 100 scale where 0 is no effect and 100 is complete control; read-out: Rice plant response rating
How it was run: as §2

[9] = tested on: barnyardgrass (Echinochloa crus-galli); test: Test B flooded paddy test; conditions: Echinochloa crus-galli, 250 g ai/ha, Flood; 0 to 100 scale where 0 is no effect and 100 is complete control; read-out: Barnyardgrass plant response rating
How it was run: as §2

[10] = tested on: ducksalad (Heteranthera limosa); test: Test B flooded paddy test; conditions: Heteranthera limosa, 250 g ai/ha, Flood; 0 to 100 scale where 0 is no effect and 100 is complete control; read-out: Ducksalad plant response rating
How it was run: as §2

[11] = tested on: giant foxtail (Setaria faberii); test: Test A postemergence; conditions: Setaria faberi, post-emergence, 240 h
How it was run: as §1

[12] = tested on: Galium (catchweed bedstraw, Galium aparine); test: Test A postemergence; conditions: Galium, post-emergence, 240 h
How it was run: as §1

[13] = tested on: ryegrass, Italian (Italian ryegrass, Lolium multiflorum); test: Test A postemergence; conditions: Lolium multiflorum, post-emergence, 240 h
How it was run: as §1

[14] = tested on: Kochia (Kochia scoparia); test: Test A postemergence; conditions: Bassia scoparia, post-emergence, 240 h
How it was run: as §1

[15] = tested on: barnyardgrass (Echinochloa crus-galli); test: Test A postemergence; conditions: Echinochloa crus-galli, post-emergence, 240 h
How it was run: as §1

[16] = tested on: wheat (Triticum aestivum); test: Test A postemergence; conditions: Triticum aestivum, post-emergence, 240 h
How it was run: as §1

[17] = tested on: ragweed (common ragweed, Ambrosia elatior); test: Test A postemergence; conditions: Ambrosia artemisiifolia, post-emergence, 240 h
How it was run: as §1

[18] = tested on: corn (Zea mays); test: Test A postemergence; conditions: Zea mays, post-emergence, 240 h
How it was run: as §1

[19] = tested on: pigweed (Amaranthus retroflexus); test: Test A postemergence; conditions: Amaranthus retroflexus, post-emergence, 240 h
How it was run: as §1

[20] = tested on: blackgrass (Alopecurus myosuroides); test: Test A postemergence; conditions: Alopecurus myosuroides, post-emergence, 240 h
How it was run: as §1

[21] = 125 g ai/ha, preemergence, approx. 10 d

C=C(C)c1cccc([C@H]2CN(C)C(=O)[C@@H]2C(=O)Nc2ccc(F)c(F)c2F)c1 [Compound 1087]
pest or weed control at 31 g/ha ([1]; 31 g ai/ha, Preemergence): 90% | pest or weed control at 125 g/ha [1, 21]: 100% | pest or weed control at 31 g/ha ([2]; 31 g ai/ha, Preemergence): 0% | pest or weed control at 125 g/ha [2, 21]: 30% | pest or weed control at 31 g/ha ([3]; 31 g ai/ha, Preemergence): 0% | pest or weed control at 125 g/ha [3, 21]: 60% | pest or weed control at 31 g/ha ([4]; 31 g ai/ha, Preemergence): 0% | pest or weed control at 125 g/ha [4, 21]: 90% | pest or weed control at 31 g/ha ([5]; 31 g ai/ha, Preemergence): 0% | pest or weed control at 125 g/ha [5, 21]: 0% | pest or weed control at 31 g/ha ([6]; 31 g ai/ha, Preemergence): 0% | pest or weed control at 125 g/ha [6, 21]: 0% | pest or weed control at 250 g/ha [7]: 0% | pest or weed control at 250 g/ha [8]: 25% | pest or weed control at 250 g/ha [9]: 70% | pest or weed control at 250 g/ha [10]: 30% | pest or weed control at 125 g/ha ([11]; 125 g ai/ha, postemergence, visual injury on 0 to 100 scale (0 no effect, 100 complete control), approx. 10 d, read-out: Foxtail, Giant plant response rating): 60% | pest or weed control at 31 g/ha ([11]; Postemergence, 31 g ai/ha, visual injury after approx. 10 d, 0 to 100 scale, 0 no effect, 100 complete control, read-out: Plant response rating, Foxtail, Giant): 30% | pest or weed control at 125 g/ha ([12]; 125 g ai/ha, postemergence, visual injury on 0 to 100 scale (0 no effect, 100 complete control), approx. 10 d, read-out: Galium plant response rating): 70% | pest or weed control at 31 g/ha ([12]; Postemergence, 31 g ai/ha, visual injury after approx. 10 d, 0 to 100 scale, 0 no effect, 100 complete control, read-out: Plant response rating, Galium): 30% | pest or weed control at 125 g/ha ([13]; 125 g ai/ha, postemergence, visual injury on 0 to 100 scale (0 no effect, 100 complete control), approx. 10 d, read-out: Ryegrass, Italian plant response rating): 0% | pest or weed control at 31 g/ha ([13]; Postemergence, 31 g ai/ha, visual injury after approx. 10 d, 0 to 100 scale, 0 no effect, 100 complete control, read-out: Plant response rating, Ryegrass, Italian): 0% | pest or weed control at 125 g/ha ([14]; 125 g ai/ha, postemergence, visual injury on 0 to 100 scale (0 no effect, 100 complete control), approx. 10 d, read-out: Kochia plant response rating): 20% | pest or weed control at 31 g/ha ([14]; Postemergence, 31 g ai/ha, visual injury after approx. 10 d, 0 to 100 scale, 0 no effect, 100 complete control, read-out: Plant response rating, Kochia): 0% | pest or weed control at 125 g/ha ([15]; 125 g ai/ha, postemergence, visual injury on 0 to 100 scale (0 no effect, 100 complete control), approx. 10 d, read-out: Barnyardgrass plant response rating): 90% | pest or weed control at 31 g/ha ([15]; Postemergence, 31 g ai/ha, visual injury after approx. 10 d, 0 to 100 scale, 0 no effect, 100 complete control, read-out: Plant response rating, Barnyardgrass): 20% | plant injury at 125 g/ha ([16]; 125 g ai/ha, postemergence, visual injury on 0 to 100 scale (0 no effect, 100 complete control), approx. 10 d, read-out: Wheat plant response rating): 0% | plant injury at 31 g/ha ([16]; Postemergence, 31 g ai/ha, visual injury after approx. 10 d, 0 to 100 scale, 0 no effect, 100 complete control, read-out: Plant response rating, Wheat): 0% | pest or weed control at 125 g/ha ([17]; 125 g ai/ha, postemergence, visual injury on 0 to 100 scale (0 no effect, 100 complete control), approx. 10 d, read-out: Ragweed plant response rating): 0% | pest or weed control at 31 g/ha ([17]; Postemergence, 31 g ai/ha, visual injury after approx. 10 d, 0 to 100 scale, 0 no effect, 100 complete control, read-out: Plant response rating, Ragweed): 0% | plant injury at 125 g/ha ([18]; 125 g ai/ha, postemergence, visual injury on 0 to 100 scale (0 no effect, 100 complete control), approx. 10 d, read-out: Corn plant response rating): 0% | Corn plant response rating (crop injury, 0 = no effect, 100 = complete kill) at 31 g/ha ([18]; Postemergence, 31 g ai/ha, visual injury after approx. 10 d, 0 to 100 scale, 0 no effect, 100 complete control): 0% | pest or weed control at 125 g/ha ([19]; 125 g ai/ha, postemergence, visual injury on 0 to 100 scale (0 no effect, 100 complete control), approx. 10 d, read-out: Pigweed plant response rating): 30% | pest or weed control at 31 g/ha ([19]; Postemergence, 31 g ai/ha, visual injury after approx. 10 d, 0 to 100 scale, 0 no effect, 100 complete control, read-out: Plant response rating, Pigweed): 0% | pest or weed control at 125 g/ha ([20]; 125 g ai/ha, postemergence, visual injury on 0 to 100 scale (0 no effect, 100 complete control), approx. 10 d, read-out: Blackgrass plant response rating): 30% | pest or weed control at 31 g/ha ([20]; Postemergence, 31 g ai/ha, visual injury after approx. 10 d, 0 to 100 scale, 0 no effect, 100 complete control, read-out: Plant response rating, Blackgrass): 0%
